The results in this text go back to US20050238666A1, “Methods of enhancing stem cell engraftment” (priority 2003, published 2005).

For assay [1], the system named is hematopoietic progenitor cells. As to the kind of experiment: Colony assay in methylcellulose (CFU) of transduced bone marrow progenitor cells. The format is cell-based, mouse. Conditions: expression of the transgene in the cells; FIG. 9. The method, then:
Mouse Low Density Bone Marrow (LDBM) Isolation and Viral Transduction: Whole bone marrow was collected from C57B1/6 animals (Jackson Laboratory, Bar Harbor, Me.), 48 h after treatment with 5-fluorouracil (150 mg/kg of body weight, IP; American Pharmaceutical Partners, Los Angeles, Calif.) and was re-suspended in RPMI medium (Life Technologies, Inc.). Bone marrow cells were obtained from the animals, and low-density, mononuclear bone marrow (LDBM) cells are isolated from fresh bone marrow (BM) by density centrifugation on Histopaque-1083 (Sigma, […].) gradient for 20 min at 1,700 rpm at room temperature. Cells at the interface were collected and washed twice with Roswell Park Memorial Institute (RPMI) Media and then counted on a hemocytometer. […] Cells were subsequently analyzed and sorted for green fluorescence protein (GFP) using a Fluorescence Activated Cell Sorting (FACS) (Becton Dickinson, San Jose, Calif.). […]
The transduction efficiency of the cells was tested using the following assay: Colony assay: 2×10^4 cells re-suspended in 4 mL complete methylcellulose (Metho Cult™ GF M3434, Stem Cell Technologies) were plated in 35 mm grided non-tissue culture dishes (Nalge Nunc Int.) (1 mL/dish). The colonies were scored after 10 days incubation in 5% CO2 at 37° C. […]

Another assay deals with hematopoietic stem cells. As to the kind of experiment: In vivo transplantation and engraftment study (EGFP+ cells by FACS and CFU). Details: species or system C57BL/6 mice. The method, then: FIG. 2 is a graphical representation of the experimental design showing the design for injecting mice with bone marrow cells. The peripheral blood (PB) cells were tested for EGFP+ cells by FACS analysis and the bone marrow (BM) cells were tested for EGFP+ cells by FACS analysis and by CFU assay.
4×10^5 cells were injected into C57BL/6 mice (8-10 weeks old). Prior to the transplant, the mice were irradiated with 11.75 Gy in split dose (7 Gy and 4.75 Gy) using a Cs^137 source with a minimum of 3 h between doses. For engraftment studies, 100 μL tail vein blood samples were withdrawn from each transplanted mouse every 4 weeks. Peripheral blood cells were incubated in red blood cell lysis buffer (Pharmingen, San Diego, Calif.) for […] at room temperature. Cells were then washed twice and re-suspended in 1 ml of PBS and 0.2% bovine serum albumin (BSA) (Roche Applied Sciences, Indianapolis, Ind.). The percentages of GFP^+ cells of each sample were analyzed by flow cytometry. Sixteen weeks post transplant bone marrow and spleen were isolated from the experimental animals. Cells isolated from these organs were incubated in red blood cells lysis buffer, re-suspended in PBS, 0.2% BSA and analyzed by flow cytometry, as described above.
The ability of hematopoietic progenitor cells to form colonies was analyzed in the presence of various transgenes expressing normal and mutated forms of GTPases. […]

For the substance “Cdc42N17: dominant negative Cdc42 cDNA cloned into a murine stem cell virus-based bicistronic EGFP vector”, the “ability of hematopoietic progenitor cells to form colonies” value in assay [1] is on record as “not affected”.
On to “RhoAN19: dominant negative mouse RhoA protein with threonine to asparagine point mutation at position 19, expressed from retroviral vector”, for which the “ability of hematopoietic progenitor cells to form colonies” value in assay [1] is reported as “not affected”. Also, the “engraftment: EGFP+ peripheral blood cells in transplanted animals” value in the assay on hematopoietic stem cells (3, 7, 11 and 16 weeks post transplant, normalized to control cells at 3 weeks, FIG. 6) is on record as “advantageous”. In addition, the “stem cell (HSC) engraftment” value with hematopoietic stem cells (peripheral blood, bone marrow, spleen, CFU, secondary transplant, FIGS. 6, 8, 9 and 10) is “advantageous”.
